Experimental data: PubChem BioAssay AID651703 (Broad Institute, 2012)

Target: Transforming acidic coiled-coil-containing protein 3 (Homo sapiens) (UniProt Q9Y6A5)
Assay: ARNT/TACC3 interaction disruptors, potency, confirmation, biochemical, AlphaScreen, cherry-picked samples (AID 651703);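 note: TACC3 partner is the GST-tagged E629A mutant dimer; hits lower the signal meaning they disrupt ARNT binding to TACC3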
Conditions: AlphaScreen His-ARNT PAS-B / GST-TACC3 binding, luminescence

Row | Structure (SMILES) | AC50
1 | CCOC(=O)N1CCN(S(=O)(=O)c2ccc(C(=O)Nc3nnc(C4CC4)o3)cc2)CC1 | 13.4 µM
2 | CCOc1cccc(/C=N/NC(=O)c2cccnc2)c1O | 21.6 µM
3 | O=C(CNS(=O)(=O)c1ccc([N+](=O)[O-])cc1)N/N=C/c1ccc(O)cc1O | 19.2 µM
4 | COc1ccc(NC(=O)CSc2c(C)nn(-c3nnc(C)c(=O)[nH]3)c2C)cc1 | 25.2 µM
5 | Cc1cc(=O)[nH]c(-n2[nH]c3c(c2=O)CCCC3)n1 | 39.3 µM
6 | COCCN=c1scc(-c2ccco2)n1/N=C/c1ccc(O)c(O)c1O | 9.77 µM
7 | O=C(NC[C@@H]1[C@H](c2ccccc2)[C@H](CO)N1Cc1ccccn1)C1CC1 | 59.6 µM
8 | O=C(CSc1ccc2nnc(-c3ccccn3)n2n1)Nc1ccc2c(c1)OCO2 | 46.5 µM
9 | Oc1ccc(Cl)cc1CNc1cccc2cccnc12 | 54.8 µM
10 | C/C(=N\NC(=O)C1CCCN(S(=O)(=O)c2ccccc2)C1)c1ccccn1 (stereo not given) | 11.1 µM
11 | CC(Oc1cccc(Cl)c1)C(=O)Nc1nc(-c2ccccn2)cs1 (stereo not given) | 18 µM
12 | Cc1ccccc1NC(=O)CSc1ccc(-c2ccccn2)nn1 | 3.47 µM
13 | COc1cc(NC(=O)CSc2ccc(-c3ccccn3)nn2)cc(OC)c1 | 1.78 µM
14 | CCN(CC)c1ccc(/C=N/NC(=O)c2ccc3nc[nH]c3c2)c(O)c1 | 12.5 µM
15 | O=C(CCS(=O)(=O)c1ccccc1)Nc1nc(-c2ccccn2)cs1 | 11.2 µM
16 | NNc1nnc(-c2ccccc2)c(-c2ccccc2)n1 | 8.66 µM
17 | Oc1c(C(c2ccccn2)N2CCCCC2)cc(Cl)c2cccnc12 (stereo not given) | 1.33 µM
18 | O=C(N[C@H]1CC[C@H](CCn2cc(-c3ccccn3)nn2)O[C@@H]1CO)c1ccccc1 | 13 µM
19 | O=C(N[C@H]1CC[C@H](CCn2cc(-c3ccccn3)nn2)O[C@H]1CO)c1cccnc1 | 24.8 µM
20 | O=C(Nc1ccccc1C(=O)Nc1ccccc1C(=O)O)c1ccccc1 | 65.3 µM
21 | O=C(Nc1nnc(C2=COCCO2)o1)c1ccc([N+](=O)[O-])cc1 | 34.3 µM
22 | O=C(CSc1ccc(-c2ccccn2)nn1)NC1CCCC1 | 2.64 µM
23 | Oc1ccc(Cn2ccnc2)c2cccnc12 | < 0.5 µM
24 | CC(C)(C)C1=CC(=Nc2ccccc2N)C=C(C(C)(C)C)C1=O | 1.47 µM
25 | Cc1cc(C(=O)N/N=C/c2c(CO)cnc(C)c2O)c2ccccc2n1 | 3.5 µM

Row | Structure (SMILES) | AC50
26 | C/C=C/c1ccc([C@@H]2[C@H](CO)N(Cc3ccccn3)[C@H]2CNC(C)=O)cc1 | 47.8 µM
27 | COc1cccc(C(=O)Oc2c(CN3CCOCC3)cc(Cl)c3cccnc23)c1 | 10.9 µM
28 | Cn1cccc1C(=O)Nc1nc(-c2ccccn2)cs1 | 5.3 µM
29 | Cc1ccc(C(=O)Nc2nc(-c3ccccn3)cs2)o1 | 2.07 µM
30 | O=C(CC(NCc1ccccn1)C(=O)O)Nc1ccccc1Cl (stereo not given) | 0.638 µM
31 | CC(Nc1nc(-c2ccccn2)nnc1-c1ccccc1)c1ccccc1 (stereo not given) | 0.564 µM
32 | C=C1c2cccc(O)c2C(=O)C2C(=O)[C@]3(O)C(=O)C(C(N)=O)C(=O)[C@@H](N(C)C)[C@@H]3[C@@H](O)[C@H]12 (stereo not given in full) | 21.2 µM
33 | COc1ccccc1C(CCNCc1ccc(N(C)C)cc1)c1ccc(OC(C)C)cc1 (stereo not given) | 7.83 µM
34 | Cc1cc(C)c(S(=O)(=O)N2CCOC2CNC(=O)C(=O)NCCCn2ccnc2)c(C)c1 (stereo not given) | 5.58 µM
35 | Nn1c(SC/C=C/c2ccccc2)nnc1-c1ccccn1 | 5.62 µM
36 | c1ccc(-c2nnc(-c3ccccn3)nc2NCc2cccnc2)cc1 | < 0.5 µM
37 | O=c1[nH]c(-c2ccccn2)nc2ccccc12 | 7.86 µM
38 | O=C(N[C@H]1CC[C@H](CCn2cc(-c3ccccn3)nn2)O[C@H]1CO)c1ccncc1 | 14.4 µM
39 | COc1ccc(Cc2nnc(NN)[nH]c2=O)cc1OC | 6.72 µM
40 | O=C(COc1ccccc1)Nc1nnc(-c2ccccc2)o1 | 16.5 µM
41 | Clc1cccc(-c2ccc(CNCc3ccccn3)o2)c1 | 21.2 µM
42 | Cc1cc(NC(=O)CC(C)C)c(=O)n(Cc2ccccc2F)c1 | 9.6 µM
43 | CC(C)(C)c1ccc(CNc2nc(-c3ccccn3)nnc2-c2ccccc2)cc1 | 1.33 µM
44 | Cc1ccc(C)c(CSc2ccc3nnc(-c4ccccn4)n3n2)c1 | 23.3 µM
45 | Cc1cccc(S(=O)(=O)N[C@H]2CC[C@H](CCn3cc(-c4ccccn4)nn3)O[C@H]2CO)c1 | 18.5 µM
46 | Cc1ccc(S(=O)(=O)/N=C2\C=C(Nc3ccc(O)cc3)C(=O)c3ccccc32)cc1 | 3.43 µM
47 | CC1CN(Cc2ccc(O)c3ncccc23)CC(C)O1 (stereo not given) | 2.59 µM
48 | CCOc1cc(CNCc2ccccn2)cc(Cl)c1OC | 39.7 µM
49 | COc1ccccc1CNC(=O)CSc1ccc(-c2ccccn2)nn1 | 9.48 µM
50 | COc1cccc(C2c3[nH]c4ccccc4c3CCN2Cc2ncc[nH]2)c1 (stereo not given) | 38 µM

Row | Structure (SMILES) | AC50
51 | Nn1c(SCC(=O)Nc2ccc3c(c2)OCCO3)nnc1-c1ccccn1 | 18.6 µM
52 | c1ccc(-c2nccc(-c3ccco3)n2)nc1 | 11.2 µM
53 | c1ccc(CCNc2nc(-c3ccccn3)nnc2-c2ccccc2)cc1 | 0.513 µM
54 | CCOC(=O)C(NCc1ccccn1)(NC(=O)c1cccnc1)C(F)(F)F (stereo not given) | 29.8 µM
55 | O=C(Nc1ccc(N2CCN(C(=O)c3ccccc3F)CC2)cc1)c1ncn[nH]1 | 17.8 µM
56 | O=S(=O)(N[C@H]1CC[C@H](CCn2cc(-c3ccccn3)nn2)O[C@@H]1CO)c1cccc(Cl)c1 | 19.2 µM
57 | CC(C)C(=O)NC(c1ccco1)c1ccc2cccnc2c1O (stereo not given) | 0.957 µM
58 | N[C@@H]1CC[C@@H](CCn2cc(-c3ccccn3)nn2)O[C@H]1CO | 0.565 µM
59 | O=C(N[C@H]1CC[C@H](CCn2cc(-c3ccccn3)nn2)O[C@@H]1CO)c1cccnc1 | 9.74 µM
60 | CC(=O)c1cccc(-c2ccc3c(=O)[nH]c(Nc4ccccc4)cc3c2)c1 | 23.1 µM
61 | c1ccc(CSc2ccc(-c3ccccn3)nn2)nc1 | 0.895 µM
62 | CCCN(CCC)c1nc(-c2ccccn2)nc2ccccc12 | 15.5 µM
63 | O=C(NCCCn1ccnc1)C(=O)NCC1OCCN1S(=O)(=O)c1ccc(F)cc1 (stereo not given) | 3.5 µM
64 | COc1cc2c(c(OC)c1OC)-c1ccc(O)c(=O)cc1[C@@H](NC(C)=O)CC2 | 40.8 µM
65 | CC(NC(=O)c1ccco1)C(=O)Nc1nc(-c2ccccn2)cs1 (stereo not given) | 4.52 µM
66 | COc1cc(CNCc2ccccn2)ccc1OCC(=O)NC(C)(C)C | 26.4 µM
67 | CCCCC(=O)NC(c1cccc([N+](=O)[O-])c1)c1ccc2cccnc2c1O (stereo not given) | 4.22 µM
68 | Cc1ccsc1C(=O)OCC(=O)Nc1nnc(-c2ccccc2)o1 | 14.4 µM
69 | Cc1ccc(S(=O)(=O)CCC(=O)Nc2nc(-c3ccccn3)cs2)cc1 | 10.5 µM
70 | COc1ccccc1Nc1cc2cc(Br)ccc2c(=O)[nH]1 | 16.8 µM
71 | CCOC(=O)Cc1nnc(NC(=O)c2ncn[nH]2)s1 | 23.2 µM
72 | Cc1cccc(C)c1Nc1c(-c2ccccn2)nc2ccccn12 | 8.6 µM
73 | O=C(c1ccccn1)N1CC[C@@H]2[C@H](CO)Nc3ccc(Br)cc3[C@@H]21 | 24.1 µM
74 | Nc1[nH]c(=O)nc(Nc2ccccc2)c1N=O | 21.2 µM
75 | O=C(N[C@@H]1CC[C@H](CCn2cc(-c3ccccn3)nn2)O[C@H]1CO)c1ccccc1 | 27.6 µM
